Measurements as given in US12233108B2, “Compositions and methods for promoting islet viability and enhancing insulin secretion” (University of Virginia Patent Foundation, priority 2019, dated 2025).
Entries after “also recorded” stand apart in the source; their conditions may differ. Read-outs that look alike come from different tables or passages of the source. Where no end group is shown, it is not given here.

Legend:
human islets [1] = experiment: Glucose-stimulated insulin secretion (GSIS) assay, human islets; type: cell-based; conditions: for GSIS response / insulin secretion compared to C-95 peptide: human islets, 1 μM peptide overnight, 28 mM glucose
Procedure: (§1) Human islet cells were similarly incubated with a N-94 peptide or C-95 peptide for varying periods of time following which GSIS assay and viability measurements were conducted. Insulin was measured using Insulin ELISA kit (Mercodia, Uppsala, Sweden).
(§2) Human islet cells were incubated overnight with 1 μM N-94 peptide (SEQ ID NO: 1), N-94/C6 peptide (SEQ ID NO: 62), N104 peptide, Tearpep3 peptide (SEQ ID NO: 21), Tearpep3/C6 peptide (SEQ ID NO: 33), C-95 peptide, or no treatment followed by GSIS assays (se FIG. 2A for the structures of, and Table 2 for the sequences of, these exemplary peptides). C57BL/6 islet cells were pretreated with 4 μM N-94 N-94 peptide or C-95 peptide or saline for 24 hours followed by minimal islet mass transplantation into syngeneic diabetic recipients. Tail vein blood glucoses were measured daily.
(§3) 50 human islets were incubated with N-94 peptide or C-95 peptide for 1, 3, 4, 6 and 9 days following which GSIS assay and viability measurement were conducted. Insulin was measured using Insulin ELISA kit (Mercodia).
Human islets were incubated overnight with 1 μM N-94 peptide, N-94/C6 peptide, N104 peptide, Tearpep3 peptide, Tearpep3/C6 peptide, C-95 peptide, or no treatment and GSIS assay performed.

C57BL/6 islets [2] = type: cell-based, mouse; conditions: for viability of islets: C57BL/6, mouse, 4 μM; for mouse islet viability (in words): isolated mouse pancreatic islets, 4 μM peptide, in vitro
Procedure: C57BL/6 islets (see FIG. 3) were cultured with 4 μM N-94 (N-94) peptide or control peptide C-95 for different time periods ranging from 1-15 days in DMEM at 37° C. Viability of islets was scored by propidium iodide-fluorescein diacetate staining. 35 C57BL/6 islets/per well were cultured with 4 μM of N-94 peptide analog N-94 or control C-95 peptide for 1, 2, 5, 7,10 or 15 days in DMEM at 37° C. Viability of islets was scored after staining with PI/FDA. Islets cultured with N-94 peptide retained 95±3, 89±15, 80±17.5 and 61±21% viability while islets cultured with C-95 peptide retained 95±3, 87±13, 40±28 and 20±19% viability at Day 1, 5, 10 and 15.

human islets [3] = experiment: Viability of cultured human islets; type: cell-based
Procedure: as §1, §3
Human islets were treated with various peptides of the presently disclosed subject matter and viability was assessed at twenty days post-treatment.

[4] = test system: C57BL/6 mice made diabetic by single streptozotocin injection; experiment: Minimal islet mass transplantation of peptide-pretreated islets into streptozotocin-diabetic mice, blood glucose; type: in vivo, mouse
Procedure: as §2
75 C57Bl/6 islets were transplanted into C57BL/6 recipients made diabetic by single STZ injection (220 mg/Kg). Islets were pretreated with 4 μM N-94 peptide or C-95 peptide or saline for 24 hours prior to transplantation into diabetic mice (n=2 mice/group). Tail vein blood glucoses were measured daily. Incubation of islets with N-94 peptide permanently returned transplanted mice to normoglycemia with glucoses below 200 mg/dL within 9 days posttransplant. With C-95 peptide treatment, the glucose at Day 12 posttransplant was <250 mg/dL. Mice transplanted with untreated islets remained diabetic.
FIG. 4 is a graph of blood glucose levels of pancreatic islets treated with the indicated peptides and transplanted into diabetic mice observed for 60 days. Shown is a graph of blood glucose levels after minimal transplantation of 75 N-94 peptide-treated, C-95 peptide-treated, or saline-treated C57Bl/6 islets under the kidney capsule of C57BL/6 mice made diabetic before transplantation by single streptozotocin injection (220 mg/kg; two mice per group). Pretreatment was for 24 hours. Tail vein blood was collected daily for glucose analyses. Each line represents the progressive blood glucose level of a single diabetic mouse. Six mice each received N-94 peptide treated islets (black), six others received C-95 peptide treated islets (blue), and four received saline treated islets (orange). N-94 peptide permanently returned transplanted mice to normoglycemia with glucose below 200 mg/dL within 9 days post-transplantation with treatment efficacy continuing after 40 days post-transplantation. With C-95 peptide treatment, the glucose at Day 12 post-transplant was <250 mg/dL. Average blood glucoses measured between Days 22 to 43 were 142.9±17.6 mg/dL for the N-94 group compared to 275±34.8 mg/dL for the C-95 peptide group.

C57BL/6 islets [5] = experiment: Glucose-stimulated insulin secretion (GSIS) assay, mouse islets; type: cell-based; conditions: for insulin secreted in GSIS assay: 50 islets/well, high glucose (28 mM); for GSIS: mouse islet cells
Procedure: C57BL/6 islets were also incubated overnight with 4 μM N-94 peptide (SEQ ID NO: 1) or C-95 peptide or no additive following which Glucose-stimulated Insulin secretion (GSIS) assays were performed.
C57BL/6 islets were incubated overnight with 4 μM N-94 peptide or C-95 peptide or no additive. 50 islets/well were used to perform Glucose stimulated Insulin secretion (GSIS) assay. Islets that were untreated or treated with C-95 peptide or with N-94 peptide and stimulated with high glucose (28 mM) secreted 39.86±7.81, 54.9±18.14, and 91±22.16 ng/ml Insulin. N-94 peptide increased insulin secretion by 2-fold compared to untreated control. Viability of human islets incubated with N-94 peptide at Day 1, 3, 4, 6, and 9 was 95±4, 95±3, 94±4, 84±9, and 80±15% while with C-95 it was 94±4, 91±7, 88±8, 66±16, and 65±18%. With saline it was 94±4, 94±3, 88±8, 58±19, and ˜53. While GSIS results were similar to the mouse results, maximum insulin secretion activity with N-94 peptide was only observed on Day 1 and 3.

human sensory neurons = experiment: Viability of iPSC-derived sensory neurons stressed with inflammatory cytokines (Alamar Blue); type: cell-based; conditions: day 21 neurons, IFN-γ (1000 U/mL)+TNF-α (100 ng/mL), 1 mM peptide, 72 hours
Procedure: Whether the peptides of the presently disclosed subject matter could enhance viability of human sensory neurons stressed with inflammatory cytokines was tested. Sensory neurons were derived from Induced Pluripotent Stem Cells (iPSC). iPSCs were seeded into 12 well Matrigel-coated plates (1.25×10^5 cells/well). Neural differentiation was initiated when cells were confluent using KSR medium. 100 nM of LDN-193189 and […] of SB431542 were added to the culture from day 0 to 6, to inhibit SMAD signaling. On day 4, 25% of N2 medium was added to the culture, with 100% of N2 medium at day 10. Sensory neurons induction was initiated at day 2 (day 2-10), with the addition of […] CHIR 99021, […] SU5402, and […] DAPT. From day 10 to day 21 neuron maturation was promoted with 25 ng/mL of β-NGF, BDNF, and GDNF. Cells were fed every day.
Sensory neurons (day 21) were incubated with IFN-g (1000 U/mL)+TNF-α (100 ng/mL) with or without 1 mM of the N-94/C-6 peptide or the negative control C-95 peptide for 72 hours in a 96-well plate. Alamar Blue reagent (10%) was added in each well. Fluorescence was measured after 6 hours (excitation at 545 nm/emission at 590 nm).

[6] = 75 islets pretreated 24 hours with 4 μM peptide, STZ-diabetic C57BL/6 mice
[7] = C57BL/6 islets, 4 μM peptide overnight

Row | Sequence | GSIS response / insulin secretion compared to C-95 peptide (human islets [1]) | viability of islets (C57BL/6 islets [2]; 1 days) [%] | viability of islets (C57BL/6 islets [2]; 5 days) [%] | viability of islets (C57BL/6 islets [2]; 10 days) [%] | viability of islets (C57BL/6 islets [2]; 15 days) [%] | mouse islet viability (in words) (C57BL/6 islets [2]) | viability of human islets (human islets [3]; 1 days) [%] | viability of human islets (human islets [3]; 3 days) [%] | viability of human islets (human islets [3]; 4 days) [%] | viability of human islets (human islets [3]; 6 days) [%] | viability of human islets (human islets [3]; 9 days) [%] | average blood glucose between Days 22 to 43 [4, 6] [mg/dL] | insulin secreted in GSIS assay (C57BL/6 islets [5]; [7]) [ng/mL] | GSIS (C57BL/6 islets [5]; 4 μM peptide overnight) [ng/mL] | also measured
1 | AQKLLKKFSLLKPWA [N-104] | ~3.5 fold | – | – | – | – | – | – | – | – | – | – | – | – | – | rank of activity in glucose-dependent insulin secretion assay (human islets [1]; 100 human islets, 1 μM peptide, 24 hours): Most active
2 | EDASSDSTGADPAQEAGTSKPNEE [C-95, reference compound] | – | 95±3 | 87±13 | 40±28 | 20 | not | 94±4 | 91±7 | 88±8 | 66 | 65±18 | 275 ± 34.8 | 54.9 ± 18.14 | 54.9 ± 18.1 | blood glucose at Day 12 posttransplant [4, 6]: < 250 mg/dL
3 | GKNRRKNWHAQLFVL [Tearpep3/N-104] | – | – | – | – | – | – | – | – | – | – | – | – | – | – | viability of human islets twenty days after isolation (in words) (human islets [3]; human islets, 4 μM peptide, versus 4 μM Tearpep3/C-6 and lacritin N-94): superior viability
4 | KQFIENGSEFAQKLLKKFS [N-94/C-6, fragment of lacritin] | – | – | – | – | – | – | – | – | – | – | – | – | – | – | viability of stressed human sensory neurons (in words) (human sensory neurons): restored viability
5 | KQFIENGSEFAQKLLKKFSLLKPWA [N-94] | near doubling; also recorded: nearly doubled | 95±3 | 89±15 | 80±17.5 | 61 | promotes mouse islet viability | 95±4 | 95±3 | 94±4 | 84 | 80±15 | 142.9 ± 17.6 | 91 ± 22.16 | 91 ± 22 | time to normoglycemia (glucose below 200 mg/dL) posttransplant [4, 6]: ≤ 9 days; treatment efficacy continuing posttransplant [4, 6]: > 40 days; blood glucose on return to normoglycemia ([4]; 75 islets pretreated 24 hours with 4 μM peptide, transplanted into STZ-diabetic C57BL/6 mice, within 9 days posttransplant): below 200 mg/dL; effect of peptide-pretreated islet transplant on diabetes (in words) ([4]; pretreated islets transplanted into streptozotocin diabetic mice): rapidly restores normoglycemia; also recorded: reverse disease; increase of GSIS / insulin secretion compared to untreated (C57BL/6 islets [5]; C57BL/6 islets, 4 μM peptide overnight, high glucose): ~2 fold; glucose-dependent insulin secretion (in words) (C57BL/6 islets [5]; isolated mouse pancreatic islets, 4 μM peptide, treatment 24 hours after islet isolation): promotes
